{"source": "patent US20170128475A1", "about": "“COMPOSITIONS AND METHODS FOR PREVENTING AND TREATING ORGAN INJURY AND/OR DYSFUNCTION” (THE GENERAL HOSPITAL CORPORATION, priority 2010, published 2017)", "key": {"wild type mice [1]": {"test_system": "wild type mice", "assay": "APAP-induced hepatotoxicity in wild type mice treated with 2APB", "format": "in vivo", "experimental": "(§1) Serum ALT levels (FIG. 3A); liver tissue MPO activity (FIG. 3B); and H&E liver sections (FIG. 3C) (original magnification 10×; scale bar=400 μm) from wildtype mice after treatment with 2APB alone (20 mg/kg), TAA (200 mg/kg) plus vehicle, TAA (200 mg/kg) plus 2APB (1 or 20 mg/kg), APAP (500 mg/kg) plus vehicle, or APAP (500 mg/kg) plus 2APB (20 mg/kg). Livers and sera were collected 24 hours after TAA challenge, or 16 hours after APAP challenge. FIG. 3D reflects Q-PCR for TNF-α, […], IL-6, and CCL5 from whole livers of mice treated with TAA and 2APB as described above. FIG. 3E is a Kaplan-Meier survival curve for wildtype mice over 30 days after a single lethal dose of TAA (500 mg/kg) plus vehicle, or TAA (500 mg/kg) plus 2APB (20 mg/kg) (n=10). Serum ALT levels (FIG. 3F) and H&E liver sections (FIG. 3G) (original magnification 10×; scale bar=400 μm) from wildtype mice after TAA (200 mg/kg) or APAP (500 mg/kg), with or without a rescue injection of 2APB (20 mg/kg) at 1.5, 3 or 6 hours after hepatotoxin challenge. Livers and sera were collected 24 hours after TAA challenge, or 16 hours after APAP challenge.\nAPAP (Sigma Aldrich) solution was made fresh for each experiment in 0.9% saline at 20 mg/ml and heated until dissolved. APAP was dosed at 500 or 750 mg/kg, and injected intraperitoneally after 15 hr of starvation. Animals were euthanized by ketamine/xylazine injection at 16 hr for collection of serum, and liver tissue for MPO activity assay and histology.\n2APB (Sigma Aldrich) was made fresh for each experiment in DMSO as a vehicle at 200 mg/ml. 2APB was dosed at 1 or 20 mg/kg, and was administered before (90 min), with, or after (1.5, 3 or 6 hr) the appropriate dose of TAA or APAP. Vehicle control mice received the appropriate volume of DMSO. Fresh anhydrous DMSO (Sigma Aldrich) was used for each experiment. DMSO was dosed at 0.1 or 1 ml/kg, and coadministered concurrently with 200 mg/kg TAA or saline.\nMouse liver tissues were homogenized in MPO buffer (0.5% hexadecyl trimethyl ammonium bromide, 10 mM EDTA, 50 mM Na2HPO4, pH 5.4) using a Polytron homogenizer. Liver homogenates were then subject to three freeze-thaw cycles and cleared by centrifugation. MPO reaction was carried out using the Invitrogen EnzChek Myeloperoxidase Activity Assay Kit (Invitrogen, Carlsbad, Calif.), according to the manufacturer's protocol."}, "Cx32 gap junctions [2]": {"target": "Cx32 gap junctions (Homo sapiens, UniProt P08034)", "sequence (P08034 whole entry)": "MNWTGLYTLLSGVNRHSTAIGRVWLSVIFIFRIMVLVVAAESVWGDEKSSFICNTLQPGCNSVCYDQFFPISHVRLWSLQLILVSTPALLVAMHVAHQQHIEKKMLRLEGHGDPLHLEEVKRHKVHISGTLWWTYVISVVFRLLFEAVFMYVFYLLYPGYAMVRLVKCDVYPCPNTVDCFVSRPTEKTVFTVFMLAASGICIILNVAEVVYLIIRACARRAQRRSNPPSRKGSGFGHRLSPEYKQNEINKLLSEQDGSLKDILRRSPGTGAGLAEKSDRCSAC", "settings": "shown previously, Tao & Harris, 71 Mol. Pharmacol. 57 (2007); cited from earlier work"}, "[3]": {"test_system": "hepatic gap junction communication", "assay": "Tissue scrape and load assay on explanted liver slices", "format": "in vivo, mice", "settings": "2APB 20 mg/kg i.p.; livers excised after 3 hours", "experimental": "(§2) FIG. 2A-FIG. 2F presents data on small molecule inhibitors of Cx32 that selectively block hepatic gap junction communication and limit drug-induced hepatotoxicity. FIG. 2A and FIG. 2B depict a dye-coupling parachute assay was used to determine the specificity of 2APB for Cx32 gap junctions compared to Cx43 gap junctions. HeLa Cx32 or Cx43 cells were loaded with gap junction permeable calcein-AM (10 μM) and impermeable CM-DiI (10 μM), and seeded onto unlabeled recipient HeLa Cx32 or Cx43 cells, respectively, in the presence or absence of 2APB (100 μM). After 4 hours, the co-culture was analyzed by fluorescence microscopy (n>5), and gap junction communication was assessed by calculating the average number of calcein positive cells per CM-Dil positive cells, normalized to control conditions without 2APB treatment. […] Slices were washed, fixed, cryosectioned (7 μm), and analyzed by fluorescence microscopy (n>5) and custom automated image analysis software to produce iso-intensity contour maps outlining spread of Lucifer yellow and dextran-Texas red. […]\nFluorescence images were captured on a Zeiss 200 Axiovert microscope at a fixed exposure and gain. Images for the tissue scrape load assay were quantified using custom image analysis routines written in MATLAB13. […] Regional outlines were plotted as contour maps by displaying iso-intensity lines at the determined threshold level."}, "wild type mice [4]": {"test_system": "wild type mice", "assay": "TAA-induced hepatotoxicity in wild type mice treated with 2APB", "format": "in vivo", "settings": "for total hepatic ROS levels: 2APB (20 mg/kg) coadministered with TAA (200 mg/kg), 4 hours, dihydroethidium staining", "experimental": "FIG. 2A-FIG. 2F presents data on small molecule inhibitors of Cx32 that selectively block hepatic gap junction communication and limit drug-induced hepatotoxicity. FIG. 2A and FIG. 2B depict a dye-coupling parachute assay was used to determine the specificity of 2APB for Cx32 gap junctions compared to Cx43 gap junctions. HeLa Cx32 or Cx43 cells were loaded with gap junction permeable calcein-AM (10 μM) and impermeable CM-DiI (10 μM), and seeded onto unlabeled recipient HeLa Cx32 or Cx43 cells, respectively, in the presence or absence of 2APB (100 μM). After 4 hours, the co-culture was analyzed by fluorescence microscopy (n>5), and gap junction communication was assessed by calculating the average number of calcein positive cells per CM-Dil positive cells, normalized to control conditions without 2APB treatment. FIG. 2C depicts a tissue version of the scrape and load test, developed to evaluate functional gap junction intercellular communication in liver tissue. Cx32+/+ and Cx32−/− mice were treated with saline, 2APB (20 mg/kg), or 2APB plus TAA (200 mg/kg) for 3 hours. Livers were excised, cut into 2-3 mm slices, and a small area of each slice was mechanically damaged with the insertion of a 27 gauge needle coated with 0.5% Lucifer yellow (gap junction permeable) and 0.5% Texas red labeled dextran (gap junction impermeable). Slices were washed, fixed, cryosectioned (7 μm), and analyzed by fluorescence microscopy (n>5) and custom automated image analysis software to produce iso-intensity contour maps outlining spread of Lucifer yellow and dextran-Texas red. […] FIG. 2D: Serum alanine aminotransferase (ALT) levels; FIG. 2E: liver tissue MPO activity; and FIG. 2F: H&E liver sections (original magnification 10×; scale bar=400 μm) from wildtype mice pretreated with 2APB (20 mg/kg) or vehicle for 60 minutes, and then challenged with TAA (200 mg/kg) for 24 hours.\nas §1\nLiver cryosections from Cx32+/+ mice treated with vehicle, TAA (200 mg/kg) plus vehicle, or TAA (200 mg/kg) plus 2APB (20 mg/kg) for 4 hours were stained with dihydroethidium, a cell permeable free radical probe that binds nucleic DNA and becomes fluorescent when […], and analyzed by fluorescence microscopy for ROS activity (n>5).\nTAA (Sigma Aldrich, St. Louis, Mo.) solution was made fresh for each experiment in 0.9% saline at 20 mg/ml. TAA was dosed at 200, 500 or 1000 mg/kg, depending on the experiment, and injected intraperitoneally. Control mice received the appropriate volume of 0.9% saline. Animals were euthanized by ketamine/xylazine injection at 24 hr for collection of serum and liver tissue for qPCR, GSH/GST assay, MPO activity assay, and histology. For survival experiments, animals were observed every 24 hr for 30 days.\n2APB (Sigma Aldrich) was made fresh for each experiment in DMSO as a vehicle at 200 mg/ml. […]"}, "Cx32 gap junctions [5]": {"test_system": "Cx32 gap junctions", "assay": "Dye-coupling parachute assay, HeLa Cx32 cells", "format": "cell-based", "settings": "2APB 100 μM, 4 hours, normalized to no 2APB", "experimental": "as §2, with “treatment. FIG. 2C depicts a tissue version of the scrape and load test, developed to evaluate functional gap junction intercellular communication in liver tissue. Cx32+/+ and Cx32−/− mice were treated with saline, 2APB (20 mg/kg), or 2APB plus TAA (200 mg/kg) for 3 hours.” for “treatment.”"}, "Cx43 gap junctions": {"test_system": "Cx43 gap junctions", "assay": "Dye-coupling parachute assay, HeLa Cx43 cells", "format": "cell-based", "settings": "2APB 100 μM, 4 hours, normalized to no 2APB", "experimental": "as §2, with “treatment. FIG. 2C depicts a tissue version of the scrape and load test, developed to evaluate functional gap junction intercellular communication in liver tissue. Cx32+/+ and Cx32−/− mice were treated with saline, 2APB (20 mg/kg), or 2APB plus TAA (200 mg/kg) for 3 hours.” for “treatment.”"}, "Cx32+/+ and Cx32−/− mice": {"test_system": "Cx32+/+ and Cx32−/− mice", "assay": "TAA-induced mortality in Cx32+/+ and Cx32−/− mice", "format": "in vivo", "settings": "single lethal dose 500 mg/kg TAA, 30 days", "experimental": "FIG. 1C is a series of micrographs showing less liver hemorrhaging, necrosis and acute inflammation in Cx32−/− mice compared to Cx32+/+ mice 24 hours after TAA treatment (H&E staining; original magnification 10×; scale bar=400 μm). FIG. 1D presents bar graphs depicting increase in total liver TNF-α, pro-IL-1α, IL-6, and CCL5 transcripts, as measured by Q-PCR, in Cx32+/+ mice 12 hours after TAA, compared to Cx32−/− mice. FIG. 1E is a bar graph of liver tissue myeloperoxidase activity (MPO) in Cx32+/+ and Cx32−/− mice 24 hours after treatment with TAA. FIG. 1F is a Kaplan-Meier survival curve for Cx32+/+ and Cx32−/− mice over 30 days after a single lethal dose of 500 mg/kg TAA (Cx32+/+ and Cx32−/−: n=12).\nC57BL/6 mice were purchased from Jackson Laboratory. Cx32−/− mice were a generous gift from K. Willecke (University of Bonn) and D. Paul (Harvard University). All animal protocols were approved by Massachusetts General Hospital Subcommittee on Research Animal Care. For survival experiments, animals were euthanized when they became moribund according to the criteria of lack of response to stimuli or lack of righting reflex.\nTAA (Sigma Aldrich, St. Louis, Mo.) solution was made fresh for each experiment in 0.9% saline at 20 mg/ml. TAA was dosed at 200, 500 or 1000 mg/kg, depending on the experiment, and injected intraperitoneally. Control mice received the appropriate volume of 0.9% saline. […]"}, "[6]": {"settings": "2APB (20 mg/kg) coadministered with APAP (500 mg/kg), 16 hours"}, "[7]": {"settings": "rescue injection of 2APB (20 mg/kg) 6 hours after APAP (500 mg/kg)"}, "[8]": {"settings": "2APB coadministered with TAA (200 mg/kg), 24 hours"}, "[9]": {"settings": "rescue injection of 2APB (20 mg/kg) 6 hours after TAA (200 mg/kg)"}, "[10]": {"settings": "single dose 2APB (20 mg/kg) 60 minutes prior to TAA (200 mg/kg), 24 hours, compared to vehicle"}}}
{"compound": "NCCOB(c1ccccc1)c1ccccc1", "note": "[2APB, 2-aminoethyoxydiphenyl-borate]", "values": [{"measurement": "histological evidence of hepatic necrosis and hemorrhaging", "setting": "wild type mice [1]; [6]", "result": "dramatically reduced"}, {"measurement": "neutrophil infiltration (liver tissue MPO activity)", "setting": "wild type mice [1]; [6]", "result": "dramatically reduced"}, {"measurement": "serum ALT", "setting": "wild type mice [1]; 2APB (20 mg/kg) coadministered with APAP (500 mg/kg), 16 hours, compared with APAP alone", "result": "dramatically reduced"}, {"measurement": "liver inflammation", "setting": "wild type mice [1]; 2APB coadministered with APAP", "result": "dramatically reduced"}, {"measurement": "total hepatic ROS levels", "setting": "wild type mice [1]; 2APB coadministered with APAP", "result": "dramatically reduced"}, {"measurement": "hepatotoxicity", "setting": "wild type mice [1]; rescue injection of 2APB (20 mg/kg) 1.5 hours after APAP (500 mg/kg)", "result": "nearly complete absence"}, {"measurement": "hepatocellular damage and necrosis", "setting": "wild type mice [1]; [7]", "result": "limited"}, {"measurement": "serum ALT levels", "setting": "wild type mice [1]; [7]", "result": "reduced"}, {"measurement": "inhibition of Cx32 gap junctions in vitro", "setting": "Cx32 gap junctions [2]", "result": "transiently inhibit"}, {"measurement": "hepatic gap junction communication in vivo (spread of Lucifer yellow)", "setting": "[3]", "result": "effectively blocks"}, {"measurement": "total hepatic ROS levels", "setting": "wild type mice [4]", "result": "dramatically reduced"}, {"measurement": "total hepatic ROS levels", "setting": "wild type mice [4]; listed as 2-APB", "result": "abrogated"}, {"measurement": "serum ALT", "setting": "wild type mice [4]; 2APB (1 or 20 mg/kg) coadministered with TAA (200 mg/kg), 24 hours, compared with TAA alone", "result": "dramatically reduced"}, {"measurement": "histological evidence of hepatic necrosis and hemorrhaging", "setting": "wild type mice [4]; [8]", "result": "dramatically reduced"}, {"measurement": "neutrophil infiltration (liver tissue MPO activity)", "setting": "wild type mice [4]; [8]", "result": "dramatically reduced"}, {"measurement": "liver inflammation", "setting": "wild type mice [4]; 2APB coadministered with TAA (200 mg/kg), Q-PCR of whole livers", "result": "dramatically reduced"}, {"measurement": "hepatotoxicity", "setting": "wild type mice [4]; rescue injection of 2APB (20 mg/kg) 1.5 hours after TAA (200 mg/kg)", "result": "nearly complete absence"}, {"measurement": "hepatocellular damage and necrosis", "setting": "wild type mice [4]; [9]", "result": "limited"}, {"measurement": "serum ALT levels", "setting": "wild type mice [4]; [9]", "result": "reduced"}, {"measurement": "histological evidence of parenchymal damage", "setting": "wild type mice [4]; [10]", "result": "dramatically reduced"}, {"measurement": "neutrophil infiltration (liver tissue MPO activity)", "setting": "wild type mice [4]; [10]", "result": "limited"}, {"measurement": "serum ALT", "setting": "wild type mice [4]; [10]", "result": "significantly reduced"}, {"measurement": "survival", "setting": "wild type mice [4]; single lethal dose TAA (500 mg/kg) plus 2APB (20 mg/kg), 30 days", "result": 100, "unit": "%"}, {"measurement": "spread of calcein via Cx32 gap junctions", "setting": "Cx32 gap junctions [5]", "result": "blocked"}, {"measurement": "effect on Cx43 gap junctions (spread of calcein)", "setting": "Cx43 gap junctions", "result": "minimal effect"}]}
{"compound": "CC(=N)S", "note": "[TAA, thioacetamide]", "values": [{"measurement": "mortality", "setting": "Cx32+/+ and Cx32−/− mice; Cx32+/+ mice", "result": 100, "unit": "%"}, {"measurement": "survival", "setting": "Cx32+/+ and Cx32−/− mice; Cx32−/− mice", "result": 100, "unit": "%"}]}
